# Organism: Rattus norvegicus
# Assay: DrugMatrix - Regimen: Daily Repeat
# Assay type: toxicity, organism-based, Sprague-Dawley
# Parameters: regimen Daily Repeat, gender Male, age 6-8 weeks
# Conditions: in vivo, po, route oral GAVAGE, vehicle .5 % CMC; for ABSOLUTE BASOPHIL / ABSOLUTE EOSINOPHIL / ABSOLUTE LYMPHOCYTE / ABSOLUTE MONOCYTE / ABSOLUTE SEGMENTED NEUTROPHIL / BASOPHIL / EOSINOPHIL / ERYTHROCYTE COUNT / HEMATOCRIT / HEMOGLOBIN / LEUKOCYTE COUNT / LYMPHOCYTE / MEAN CORPUSCULAR HEMOGLOBIN / MEAN CORPUSCULAR HEMOGLOBIN CONCENTRATION / MEAN CORPUSCULAR VOLUME / MONOCYTE / NEUTROPHIL / NUCLEATED RED BLOOD CELLS / PLATELET COUNT: tissue Blood; for ALANINE AMINOTRANSFERASE / ALBUMIN / ALKALINE PHOSPHATASE / ASPARTATE AMINOTRANSFERASE / BLOOD UREA NITROGEN / CARBON DIOXIDE / CHLORIDE / CHOLESTEROL / CREATINE PHOSPHOKINASE / CREATININE / GLUCOSE / LACTATE DEHYDROGENASE / LIPASE / PHOSPHORUS / POTASSIUM / SODIUM / TOTAL BILIRUBIN / TOTAL PROTEIN / URIC ACID: tissue Plasma
# [1] = 0 mg/kg, 72 h, dose level Control, time 3 day
# [2] = 0 mg/kg, 120 h, dose level Control, time 5 day
# [3] = 30 mg/kg, 72 h, dose level Low, time 3 day
# [4] = 30 mg/kg, 120 h, dose level Low, time 5 day
compound,measurement,setting,value
COc1cc(OC)c(C(=O)CCCN2CCCC2)c(OC)c1 [BUFLOMEDIL],ABSOLUTE BASOPHIL,[1],0 CELLS/uL
same,ABSOLUTE EOSINOPHIL,[1],0 CELLS/uL
same,ABSOLUTE LYMPHOCYTE,[1],10913.67 CELLS/uL
same,ABSOLUTE MONOCYTE,[1],85.33 CELLS/uL
same,ABSOLUTE SEGMENTED NEUTROPHIL,[1],1401 CELLS/uL
same,BASOPHIL,[1],0%
same,EOSINOPHIL,[1],0%
same,ERYTHROCYTE COUNT,[1],5.57 x10E6/uL
same,HEMATOCRIT,[1],35.58%
same,HEMOGLOBIN,[1],13.8 G/DL
same,LEUKOCYTE COUNT,[1],12.4 x10E3/uL
same,LYMPHOCYTE,[1],88%
same,MEAN CORPUSCULAR HEMOGLOBIN,[1],24.78 pg
same,MEAN CORPUSCULAR HEMOGLOBIN CONCENTRATION,[1],38.82 G/DL
same,MEAN CORPUSCULAR VOLUME,[1],63.88 fL
same,MONOCYTE,[1],0.67%
same,NEUTROPHIL,[1],11.33%
same,NUCLEATED RED BLOOD CELLS,[1],0 /100WBC
same,PLATELET COUNT,[1],1162.33 x10E3/uL
same,ALANINE AMINOTRANSFERASE,[1],53 u/L
same,ALBUMIN,[1],4.17 G/DL
same,ALKALINE PHOSPHATASE,[1],374.5 u/L
same,ASPARTATE AMINOTRANSFERASE,[1],89.5 u/L
same,BLOOD UREA NITROGEN,[1],16.33 mg/dL
same,CARBON DIOXIDE,[1],29.17 mmol/L
same,CHLORIDE,[1],97.67 MEQ/L
same,CHOLESTEROL,[1],77 mg/dL
same,CREATINE PHOSPHOKINASE,[1],464.83 u/L
same,CREATININE,[1],0.14 mg/dL
same,GLUCOSE,[1],164 mg/dL
same,LACTATE DEHYDROGENASE,[1],155.5 u/L
same,LIPASE,[1],9.17 u/L
same,PHOSPHORUS,[1],12.4 mg/dL
same,POTASSIUM,[1],6.91 MEQ/L
same,SODIUM,[1],141.47 MEQ/L
same,TOTAL BILIRUBIN,[1],0.2 mg/dL
same,TOTAL PROTEIN,[1],5.95 G/DL
same,URIC ACID,[1],1.72 mg/dL
same,ABSOLUTE BASOPHIL,[2],0 CELLS/uL
same,ABSOLUTE EOSINOPHIL,[2],20.5 CELLS/uL
same,ABSOLUTE LYMPHOCYTE,[2],13871.67 CELLS/uL
same,ABSOLUTE MONOCYTE,[2],60.5 CELLS/uL
same,ABSOLUTE SEGMENTED NEUTROPHIL,[2],980.67 CELLS/uL
same,BASOPHIL,[2],0%
same,EOSINOPHIL,[2],0.17%
same,ERYTHROCYTE COUNT,[2],5.65 x10E6/uL
same,HEMATOCRIT,[2],35.63%
same,HEMOGLOBIN,[2],14.08 G/DL
same,LEUKOCYTE COUNT,[2],14.93 x10E3/uL
same,LYMPHOCYTE,[2],92.83%
same,MEAN CORPUSCULAR HEMOGLOBIN,[2],24.97 pg
same,MEAN CORPUSCULAR HEMOGLOBIN CONCENTRATION,[2],39.55 G/DL
same,MEAN CORPUSCULAR VOLUME,[2],63.13 fL
same,MONOCYTE,[2],0.33%
same,NEUTROPHIL,[2],6.67%
same,NUCLEATED RED BLOOD CELLS,[2],0 /100WBC
same,PLATELET COUNT,[2],1248.17 x10E3/uL
same,ALANINE AMINOTRANSFERASE,[2],45.17 u/L
same,ALBUMIN,[2],4.27 G/DL
same,ALKALINE PHOSPHATASE,[2],405.67 u/L
same,ASPARTATE AMINOTRANSFERASE,[2],74.17 u/L
same,BLOOD UREA NITROGEN,[2],15.5 mg/dL
same,CARBON DIOXIDE,[2],30.17 mmol/L
same,CHLORIDE,[2],100.67 MEQ/L
same,CHOLESTEROL,[2],57 mg/dL
same,CREATINE PHOSPHOKINASE,[2],239.5 u/L
same,CREATININE,[2],0.17 mg/dL
same,GLUCOSE,[2],165.67 mg/dL
same,LACTATE DEHYDROGENASE,[2],90.5 u/L
same,LIPASE,[2],8.83 u/L
same,PHOSPHORUS,[2],12.32 mg/dL
same,POTASSIUM,[2],7.03 MEQ/L
same,SODIUM,[2],142.65 MEQ/L
same,TOTAL BILIRUBIN,[2],0.18 mg/dL
same,TOTAL PROTEIN,[2],6.03 G/DL
same,URIC ACID,[2],1.98 mg/dL
same,ABSOLUTE BASOPHIL,[3],0 CELLS/uL
same,ABSOLUTE EOSINOPHIL,[3],0 CELLS/uL
same,ABSOLUTE LYMPHOCYTE,[3],12859.33 CELLS/uL
same,ABSOLUTE MONOCYTE,[3],198 CELLS/uL
same,ABSOLUTE SEGMENTED NEUTROPHIL,[3],1176 CELLS/uL
same,BASOPHIL,[3],0%
same,EOSINOPHIL,[3],0%
same,ERYTHROCYTE COUNT,[3],5.25 x10E6/uL
same,HEMATOCRIT,[3],33.97%
same,HEMOGLOBIN,[3],14.13 G/DL
same,LEUKOCYTE COUNT,[3],14.23 x10E3/uL
same,LYMPHOCYTE,[3],90%
same,MEAN CORPUSCULAR HEMOGLOBIN,[3],25.77 pg
same,MEAN CORPUSCULAR HEMOGLOBIN CONCENTRATION,[3],39.67 G/DL
same,MEAN CORPUSCULAR VOLUME,[3],64.9 fL
same,MONOCYTE,[3],1.33%
same,NEUTROPHIL,[3],8.67%
same,NUCLEATED RED BLOOD CELLS,[3],0 /100WBC
same,PLATELET COUNT,[3],1306 x10E3/uL
same,ALANINE AMINOTRANSFERASE,[3],53 u/L
same,ALBUMIN,[3],4.17 G/DL
same,ALKALINE PHOSPHATASE,[3],441 u/L
same,ASPARTATE AMINOTRANSFERASE,[3],83.33 u/L
same,BLOOD UREA NITROGEN,[3],16.67 mg/dL
same,CARBON DIOXIDE,[3],27.67 mmol/L
same,CHLORIDE,[3],98 MEQ/L
same,CHOLESTEROL,[3],75.33 mg/dL
same,CREATINE PHOSPHOKINASE,[3],360 u/L
same,CREATININE,[3],0.1 mg/dL
same,GLUCOSE,[3],146 mg/dL
same,LACTATE DEHYDROGENASE,[3],180.33 u/L
same,LIPASE,[3],9.33 u/L
same,PHOSPHORUS,[3],13.93 mg/dL
same,POTASSIUM,[3],6.77 MEQ/L
same,SODIUM,[3],143.3 MEQ/L
same,TOTAL BILIRUBIN,[3],0.23 mg/dL
same,TOTAL PROTEIN,[3],5.9 G/DL
same,URIC ACID,[3],1.47 mg/dL
same,ABSOLUTE BASOPHIL,[4],0 CELLS/uL
same,ABSOLUTE EOSINOPHIL,[4],0 CELLS/uL
same,ABSOLUTE LYMPHOCYTE,[4],10085.67 CELLS/uL
same,ABSOLUTE MONOCYTE,[4],133.67 CELLS/uL
same,ABSOLUTE SEGMENTED NEUTROPHIL,[4],980.67 CELLS/uL
same,BASOPHIL,[4],0%
same,EOSINOPHIL,[4],0%
same,ERYTHROCYTE COUNT,[4],5.03 x10E6/uL
same,HEMATOCRIT,[4],33.2%
same,HEMOGLOBIN,[4],13.3 G/DL
same,LEUKOCYTE COUNT,[4],11.2 x10E3/uL
same,LYMPHOCYTE,[4],91.33%
same,MEAN CORPUSCULAR HEMOGLOBIN,[4],26.47 pg
same,MEAN CORPUSCULAR HEMOGLOBIN CONCENTRATION,[4],40.07 G/DL
same,MEAN CORPUSCULAR VOLUME,[4],66.07 fL
same,MONOCYTE,[4],1%
same,NEUTROPHIL,[4],7.67%
same,NUCLEATED RED BLOOD CELLS,[4],0 /100WBC
same,PLATELET COUNT,[4],833 x10E3/uL
same,ALANINE AMINOTRANSFERASE,[4],55.67 u/L
same,ALBUMIN,[4],4.23 G/DL
same,ALKALINE PHOSPHATASE,[4],308.33 u/L
same,ASPARTATE AMINOTRANSFERASE,[4],81 u/L
same,BLOOD UREA NITROGEN,[4],17.33 mg/dL
same,CARBON DIOXIDE,[4],26.33 mmol/L
same,CHLORIDE,[4],102.33 MEQ/L
same,CHOLESTEROL,[4],64 mg/dL
same,CREATINE PHOSPHOKINASE,[4],354.67 u/L
same,CREATININE,[4],0.13 mg/dL
same,GLUCOSE,[4],152.33 mg/dL
same,LACTATE DEHYDROGENASE,[4],110.67 u/L
same,LIPASE,[4],12 u/L
same,PHOSPHORUS,[4],12.5 mg/dL
same,POTASSIUM,[4],6.61 MEQ/L
same,SODIUM,[4],143.1 MEQ/L
same,TOTAL BILIRUBIN,[4],0.2 mg/dL
same,TOTAL PROTEIN,[4],5.97 G/DL
same,URIC ACID,[4],2.27 mg/dL

# Source: ChEMBL document CHEMBL3885881, “DrugMatrix”
